Data published in patent publication US20060166996A1, “Phthalazine derivatives as phosphodiesterase 4 inhibitors” (Zambon Group S.P.A., priority 2002, published 2006).
In brackets after ≈: the same amount, converted by molar mass.

Assays:
[1] = Solubility test by HPLC in PBS pH 7.4; type: physicochemical; details: for solubility kinetic: PBS (phosphate buffer saline), aqueous buffer, kinetic from dmso stock
Method: HPLC method used to test the solubility.
Solubility test was performed by HPLC analysis (column 4.6×15 mm) water/0.1% TFA —CH3CN/0.06% TFA gradient) against standard.
A […] solution of the substance dissolved in DMSO was prepared.
In order to prepare the sample 190 μl of PBS (Phosphate Buffer Saline, pH 7.4) were added to 10 μl of the above solution; instead (while) in order to prepare the standard 190 μl of DMSO to other 10 μl of solution were added.

[2] = test system: T1, PDE 4 enzyme; experiment: PDE 4 enzyme inhibition (SPA); type: biochemical; details: for % at 10^−7: PDE 4 from U937 cell line
T1 construct: % at 10^−7; other: at 10^−7; PDE 4 from U937 cell line; other: PDE 4 isolated from U937 cell line; SPA with 3H-cAMP
Method: a) PDE 4 Enzyme Purification
PDE 4 enzyme was isolated from U937 cell line according to the method of Nielson et al. (J. Allergy Clin. Immunol. 1990, vol. 86, pages 801-807) partially modified for the FPLC technique (Fast Protein Liquid Chromatography).
U-937cell line (Istituto Zooprofilattico Sperimentale, Brescia, Italy) was maintained in RPMI 1640, with 10% foetal calf serum and 2 mM glutamine, at a cell density between 1×10^6 and 8×10^6 cells per ml in an incubator at 37° C. with 5% CO2.
U937 suspension was homogenised in a buffer containing 10 mM TRIS (tri-(hydroxymethyl)-aminomethane), 5 mM MgCl2, 4 mM EGTA (ethyleneglycol-bis-(β-aminoethylether)-N,N,N′N′-tetra-acetic acid), 5 mM […]-mercaptoethanol, 1 μM leupeptin, 1 μM pepstatin, 1% TRITON x-100, and 100 μM phenylmethyl sulfonyl fluoride (PMSF) at pH 7.8.
The homogenate was centrifuged and the supernatant was used for the purification of the PDE 4 enzyme; it was seeded on a column connected to a biologic chromatography system (FPLC, BIO RAD).
PDE 4 enzyme was eluted with a linear gradient, from 0.05 M to 1 M of sodium acetate, and elution fractions were collected for PDE4 activity assay.
The fractions containing PDE4 activity were collected and, after an overnight dialysis against water to remove sodium acetate, were concentrated to 30% volume with an Amicon filtration system (using YM10 membrane filter).
Ethylene glycol (30% v/v) was added and the sample was stored at −20° C. in a single aliquot until the use.
PDE 4 activity assay was performed using Scintillation Proximity Assay (SPA) Amershan kit consisting of tracer ^3H-cAMP, PDE assay buffer (10×solution: 500 mM TRIS/HCl pH 7.5, 83 mM MgCl2 and 17 mM EGTA) and Yttrium SPA PDE beads (containing 18 mM zinc sulphate).
The radioactivity of the beads was measured using a scintillation counter (Packard model MINAXI β TRI-CARB 4000 SERIES).
The IC50 values were calculated from concentration-inhibition curves by non linear regression analysis using the program ORIGIN 3.5 (MICROCAL SOFTWARE INC.) and each fitting was the mean±SEM of 3 experiments using different PDE 4 preparations.

[3] = PBS pH 7.4, HPLC, compounds of WO 00/05218
[4] = PBS pH 7.4, HPLC against standard, compounds of formula I

Row | Compound | solubility kinetic [1, 4] [µg/mL] | Sol. [1, 4] [µM] | % at 10^−7 [2] [% at 10^−7] | IC50 ([2]; PDE 4 isolated from U937 cell line, SPA with 3H-cAMP) [nM] | Sol. [1, 3] [µM]
1 | 3-[4-(3,5-dichloro-pyridin-4-ylmethyl)-7-methoxy-phthalazin-1-yl]-5-methanesulfonylamino-benzoic Acid [Compound 6] |  |  |  |  | <1
2 | 5-[4-(3,5-dichloro-pyridin-4-ylmethyl)-7-methoxy-phthalazin-1-yl]-2-methoxy-benzoic Acid [Compound 4] |  |  |  |  | 37
3 | COc1ccc2c(Cc3c(Cl)cncc3Cl)nnc(-c3ccc(C(=O)O)cc3)c2c1 [Compound 1, 4-[4-(3,5-dichloro-pyridin-4-ylmethyl)-7-methoxy-phthalazin-1-yl]-benzoic Acid] | 218 (≈ 495 µM) | 495.45 | 25 |  | 
4 | COc1ccc2c(Cc3c(Cl)cncc3Cl)nnc(-c3cc(C(=O)O)cc([N+](=O)[O-])c3)c2c1 [Compound 3, 3-[4-(3,5-dichloro-pyridin-4-ylmethyl)-7-methoxy-phthalazin-1-yl]-5-nitro-benzoic Acid] | 298 (≈ 614 µM) | 614.43 | 47 |  | 
5 | COc1ccc2c(Cc3c(Cl)cncc3Cl)nnc(-c3cc(C(=O)O)ccc3OC)c2c1 [Compound 5, 3-[4-(3,5-dichloro-pyridin-4-ylmethyl)-7-methoxy-phthalazin-1-yl]-4-methoxy-benzoic Acid] | 230 (≈ 489 µM) | 489.36 |  | 91.3 | 

Now from value to compound, other results behind:

Row | solubility kinetic [1, 4] [µg/mL] | Sol. [1, 4] [µM] | % at 10^−7 [2] [% at 10^−7] | IC50 ([2]; PDE 4 isolated from U937 cell line, SPA with 3H-cAMP) [nM] | Compound | Sol. [1, 3] [µM]
6 | 226 (≈ 481 µM) | 480.85 |  |  | COc1ccc2c(Cc3c(Cl)cncc3Cl)nnc(-c3ccc(OC)c(C(=O)O)c3)c2c1 [Compound 4, 5-[4-(3,5-dichloro-pyridin-4-ylmethyl)-7-methoxy-phthalazin-1-yl]-2-methoxy-benzoic Acid] | 
7 | 271 (≈ 508 µM) | 508.44 |  |  | COc1ccc2c(Cc3c(Cl)cncc3Cl)nnc(-c3cc(NS(C)(=O)=O)cc(C(=O)O)c3)c2c1 [Compound 6, 3-[4-(3,5-dichloro-pyridin-4-ylmethyl)-7-methoxy-phthalazin-1-yl]-5-methanesulfonylamino-benzoic Acid] | 
8 | 235 (≈ 500 µM) | 500.00 |  |  | COc1cc(C(=O)O)cc(-c2nnc(Cc3c(Cl)cncc3Cl)c3ccc(OC)cc23)c1 [Compound 7, 3-[4-(3,5-dichloro-pyridin-4-ylmethyl)-7-methoxy-phthalazin-1-yl]-5-methoxy-benzoic Acid] | 
9 | 202 (≈ 468 µM) | 468.68 | 14 |  | COc1ccc2c(Cc3c(Cl)cncc3Cl)nnc(-c3nc(C(=O)O)co3)c2c1 [Compound 9, 2-[4-(3,5-dichloro-pyridin-4-ylmethyl)-7-methoxy-phthalazin-1-yl]-oxazole-4-carboxylic Acid] | 
